The OPERA property sets (Mansouri et al. 2018)

logP | SMILES
2.71 | CCCOc1cncc(Cl)n1
1.65 | COc1cncc(Cl)n1
0.79 | N#Cc1cncc(Cl)n1
1.95 | CN(C)c1cncc(Cl)n1
1.1 | CC(=O)Nc1cncc(Cl)n1
0.47 | COC(=O)c1cncc(Cl)n1

Continued, compound first:

SMILES | logP
Nc1cncc(Cl)n1 | 0.95
Cc1cncc(Cl)n1 | 1.04
CCOc1cncc(Cl)n1 | 2.22
NC(=O)c1cncc(Cl)n1 | 0.28
Fc1cncc(Cl)n1 | 1.16
Clc1cncc(Cl)n1 | 1.53
